In US10457707B2, “Substituted urea depsipeptide analogs as activators of the CLPP endopeptidase” (priority 2015, dated 2019):
Converted amounts (≈) assume the structure as drawn. Like-named read-outs stand apart in the source and are kept apart here.

Tests used:
Format in all cases: cell-based
[1] = test system: Vero (kidney epithelial cells; ATCC CCL-81); assay: Cytotoxicity assay (CellTiter-Glo cell viability, 72 hours); details: Vero cells, 72 hours, growth inhibition; read-out: Cytotoxicity IC50
Summary of the method: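 Viability measured by CellTiter-Glo luminescence after 72-hour compound exposure (serial dilutions, DMSO control) of Vero monolayers seeded at 5000 cells/well in 10% FBS DMEM. IC50 values are the range of two biologically independent experiments, each run in duplicate.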

[2] = test system: Bacillus subtilis, ATCC 23857; assay: Minimal inhibitory concentration assay (microbroth dilution)
Summary of the method: (§1)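 Paired MICs against USA 300 and its ClpP-inactivated counterpart test whether killing runs through ClpP. All strains: two-fold broth dilutions from 200 μM final, ~10^5 cfu/mL inoculum, overnight at 37 °C in air, lowest growth-free concentration read by eye.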

[3] = test system: Enterococcus faecalis, ATCC 33186; assay: as above
Summary of the method: as §1

[4] = test system: Staphylococcus aureus, ATCC 29213; assay: as above; details: ATCC29213, read-out: Minimal Inhibitory Concentrations S. aureus ATCC 29213
Summary of the method: as §1

[5] = test system: Staphylococcus aureus, NRS70; assay: as above
Summary of the method: as §1

[6] = test system: Streptococcus pneumoniae, DAW27; assay: as above; details: DAW27, read-out: Minimal Inhibitory Concentrations S. pneumoniae DAW27
Summary of the method: as §1

[7] = test system: Streptococcus pyogenes, ATCC 700294; assay: as above
Summary of the method: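 Plates with two-fold compound dilution series in broth were incubated overnight, aerobically, at 37° C, following CLSI microdilution guidance.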

E. coli K12ΔtolC = assay: as above
[8] = test system: Staphylococcus aureus, USA 300; assay: Minimal inhibitory concentration assay; details: USA300, read-out: Minimal Inhibitory Concentrations S. aureus USA 300
Summary of the method: as §1

[9] = Bacillus subtilis, ATCC23857, read-out: Minimal Inhibitory Concentrations B. subtilis ATCC 23857
[10] = Enterococcus faecalis, ATCC33186, read-out: Minimal Inhibitory Concentrations E. faecalis ATCC 33186
[11] = Staphylococcus aureus, NRS70, read-out: Minimal Inhibitory Concentrations S. aureus NRS70
[12] = Streptococcus pyogenes, ATCC700294, read-out: Minimal Inhibitory Concentrations S. pyogenes ATCC 700294
[13] = Bacillus subtilis, ATCC23857; read-out: Minimal Inhibitory Concentrations B. subtilis ATCC 23857
[14] = Enterococcus faecalis, ATCC33186; read-out: Minimal Inhibitory Concentrations E. faecalis ATCC 33186
[15] = Staphylococcus aureus, NRS70; read-out: Minimal Inhibitory Concentrations S. aureus NRS70
[16] = Streptococcus pyogenes, ATCC700294; read-out: Minimal Inhibitory Concentrations S. pyogenes ATCC 700294

Compound `C[C@@H]1C[C@H]2C(=O)OC[C@H](NC(=O)[C@H](Cc3ccccc3)NC(=O)Nc3ccccc3Cl)C(=O)N3CCC[C@H]3C(=O)N3CCCC[C@H]3C(=O)N[C@@H](C)C(=O)N2C1` [Compound 7, (S)-2-(3-(2-chlorophenyl)ureido)-N-((2R,6S,8aS,14aS,20S,23aS)-2,6-dimethyl-5,8,14,19,23-pentaoxooctadecahydro-1H,5H,14H,19H-pyrido[2,1-i]dipyrrolo[2,1-c:2′,1′-l][1]oxa[4,7,10,13]tetraazacyclohexadecin-20-yl)-3-phenylpropanamide] has an IC50 [1] of over 100 µM, an MIC [2, 9] of 6.25 µM (≈ 4.86 µg/mL) and an MIC [3, 10] of 3.13 µM (≈ 2.44 µg/mL). For the same compound, the MIC [4] was 12.5 µM (≈ 9.73 µg/mL), the MIC [5, 11] was 12.5 µM (≈ 9.73 µg/mL) and the MIC [6] was 0.78 µM (≈ 0.607 µg/mL). For the same compound, the MIC [7, 12] was 3.13 µM (≈ 2.44 µg/mL) and the “Minimal Inhibitory Concentrations E. coli K12ΔtolC” value (E. coli K12ΔtolC) was 200 µM.

In the case of `NC[C@H]1O[C@H](O[C@H]2[C@H](O)[C@@H](O[C@H]3O[C@H](CO)[C@@H](O)[C@H](N)[C@H]3O)[C@H](N)C[C@@H]2N)[C@H](O)[C@@H](O)[C@@H]1O` [Kanamycin, kanamycin, reference compound], the MIC [2, 13] is reported as 0.1 µM (≈ 0.0485 µg/mL), the MIC [3, 14] is reported as 25 µM (≈ 12.1 µg/mL) and the MIC [4] is reported as 1.56 µM (≈ 0.756 µg/mL). It also gave an MIC [5, 15] of 50 µM (≈ 24.2 µg/mL), an MIC [6] of 25 µM (≈ 12.1 µg/mL) and an MIC [7, 16] of 12.5 µM (≈ 6.06 µg/mL). The “Minimal Inhibitory Concentrations E. coli K12ΔtolC” value (E. coli K12ΔtolC) was 0.4 µM.

Work on `C[C@@H]1C[C@H]2C(=O)OC[C@H](NC(=O)[C@H](Cc3ccccc3)NC(=O)Nc3ccc4c(c3)CCN4C)C(=O)N3CCC[C@H]3C(=O)N3CCCC[C@H]3C(=O)N[C@@H](C)C(=O)N2C1` [Compound 11, (S)—N-((2R,6S,8aS,14aS,20S,23aS)-2,6-dimethyl-5,8,14,19,23-pentaoxooctadecahydro-1H,5H,14H,19H-pyrido[2,1-i]dipyrrolo[2,1-c:2′,1′-l][1]oxa[4,7,10,13]tetraazacyclohexadecin-20-yl)-2-(3-(1-methylindolin-5-yl)ureido)-3-phenylpropanamide] yielded an IC50 [1] of 76 ± 10.6 µM, an MIC [2, 9] of 1.25 µM (≈ 0.999 µg/mL) and an MIC [3, 10] of 0.6 µM (≈ 0.479 µg/mL). For the same compound, the MIC [4] was 2.5 µM (≈ 2 µg/mL), the MIC [5, 11] was 1.25 µM (≈ 0.999 µg/mL) and the MIC [6] was 0.3 µM (≈ 0.24 µg/mL). The MIC [7, 12] was 0.6 µM (≈ 0.479 µg/mL).

`C[C@@H]1C[C@H]2C(=O)OC[C@H](NC(=O)[C@H](Cc3cc(F)cc(F)c3)NC(=O)Nc3ccc(OC(F)(F)F)cc3)C(=O)N3CCC[C@H]3C(=O)N3CCCC[C@H]3C(=O)N[C@@H](C)C(=O)N2C1` [Compound 13, (S)-3-(3,5-difluorophenyl)-N-((2R,6S,8aS,14aS,20S,23aS)-2,6-dimethyl-5,8,14,19,23-pentaoxooctadecahydro-1H,5H,14H,19H-pyrido[2,1-i]dipyrrolo[2,1-c:2′,1′-l][1]oxa[4,7,10,13]tetraazacyclohexadecin-20-yl)-2-(3-(4-(trifluoromethoxy)phenyl)ureido)propanamide] gave an MIC [2, 13] of 0.08 µM (≈ 0.0691 µg/mL), an MIC [3, 14] of 0.04 µM (≈ 0.0346 µg/mL) and an MIC [4] of 0.05 µM (≈ 0.0432 µg/mL). The MIC [5, 15] was 0.8 µM (≈ 0.691 µg/mL), the MIC [6] was 0.04 µM (≈ 0.0346 µg/mL) and the MIC [7, 16] was 0.15 µM (≈ 0.13 µg/mL).

Work on `C[C@@H]1C[C@H]2C(=O)OC[C@H](NC(=O)[C@H](Cc3ccccc3)NC(=O)Nc3ccc(OC(F)(F)F)cc3)C(=O)N3CCC[C@H]3C(=O)N3CCCC[C@H]3C(=O)N[C@@H](C)C(=O)N2C1` [Compound 2, (S)—N-((2R,6S,8aS,14aS,20S,23aS)-2,6-dimethyl-5,8,14,19,23-pentaoxooctadecahydro-1H,5H,14H,19H-pyrido[2,1-i]dipyrrolo[2,1-c:2′,1′-l][1]oxa[4,7,10,13]tetraazacyclohexadecin-20-yl)-3-phenyl-2-(3-(4-(trifluoromethoxy)phenyl)ureido)propanamide] yielded an MIC [2, 13] of 0.2 µM (≈ 0.166 µg/mL), an MIC [3, 14] of 0.02 µM (≈ 0.0166 µg/mL) and an MIC ([5]; S. aureus NRS70; read-out: Minimal Inhibitory Concentrations S. aureus NRS70) of 0.20 µM (≈ 0.166 µg/mL). For the same compound, the MIC [6] was 0.02 µM (≈ 0.0166 µg/mL), the MIC ([7]; S. pyogenes ATCC 700294; read-out: Minimal Inhibitory Concentrations S. pyogenes ATCC 700294) was 0.10 µM (≈ 0.0828 µg/mL) and the “Minimal Inhibitory Concentrations E. coli K12ΔtolC” value (E. coli K12ΔtolC) was 12.5 µM.

In the case of `CN(C)[C@@H]1C(O)=C(C(N)=O)C(=O)[C@@]2(O)C(O)=C3C(=O)c4c(O)cccc4[C@@](C)(O)[C@H]3C[C@@H]12` [Tetracycline, tetracycline, reference compound], the MIC [2, 13] is reported as 1.6 µM (≈ 0.711 µg/mL), the MIC [3, 14] is reported as 0.05 µM (≈ 0.0222 µg/mL) and the MIC [4] is reported as 0.1 µM (≈ 0.0444 µg/mL). It also gave an MIC [5, 15] of 0.05 µM (≈ 0.0222 µg/mL), an MIC [6] of 0.1 µM (≈ 0.0444 µg/mL) and an MIC [7, 16] of 0.1 µM (≈ 0.0444 µg/mL). It also gave an MIC [8] of 0.1 µM (≈ 0.0444 µg/mL).
